Earlier results in article PMC6791383, “A side-by-side evaluation of [^18F]FDOPA enantiomers for non-invasive detection of neuroendocrine tumors by positron emission tomography” (Oncotarget, 2019).

Tested on: LAT1
Set-up: method as in PMID 21770378, PMID 11901210, PMID 25205473, PMID 30048132
Conditions: cited from earlier work

Compound: N[C@H](Cc1ccc(O)c(O)c1)C(=O)O [D-DOPA, 3,4-dihydroxy-D-phenylalanine]
- IC50: 46 ± 23 µM
